Source: article doi:10.1101/2023.10.01.560353v1 (bioRxiv, 2023)
Values after ≈ are worked out from the molar mass of the structure shown. Peptide text beside a SMILES is read from it.

Assays:
A. baumannii ATCC 19606 [1] = assay: Neutropenic thigh infection mouse model; assay type: in vivo, CD-1 mice; conditions: single intraperitoneal dose at MIC, n = 6
A. baumannii ATCC 19606 [2] = assay: MIC, broth microdilution; assay type: cell-based, Acinetobacter baumannii; conditions: broth microdilution in LB, 20 h at 37 °C, OD600; mean of three replicates
[3] = tested on: 11 clinically relevant bacterial pathogens; assay: MIC over the panel of pathogens; assay type: cell-based; conditions: Table S17; lowest MIC over the strains tested

Row | Molecule | reduction of the bacterial load two days post-treatment (A. baumannii ATCC 19606 [1]) | reduction of the bacterial load four days post-treatment (A. baumannii ATCC 19606 [1]) | Minimal Inhibitory Concentration: A. baumannii ATCC19606 (A. baumannii ATCC 19606 [2]) [µmol/L] | MIC (lowest MIC value obtained in the antimicrobial activity assays) [3] [mM]
1 | polymyxin B [reference compound] | 4-5 orders of magnitude |  |  | 
2 | CC[C@H](C)[C@H](N)C(=O)N[C@@H](Cc1ccccc1)C(=O)N[C@@H](CC(C)C)C(=O)N[C@@H](Cc1c[nH]cn1)C(=O)N[C@@H](CC(C)C)C(=O)N[C@@H](CCCCN)C(=O)N[C@H](C(=O)N[C@@H](CC(C)C)C(=O)N[C@@H](CCCCN)C(=O)N[C@H](C(=O)N[C@H](C(=O)N[C@@H](CCCNC(=N)N)C(=O)N[C@@H](CC(C)C)C(=O)N[C@@H](CC(C)C)C(=O)O)[C@@H](C)CC)[C@@H](C)CC)[C@@H](C)CC [Elephasin-2] (H-IFLHLKILKIIRLL-OH) |  | 3-4 orders of magnitude | 1 | 1000 (≈ 1730 mg/mL)
3 | CC[C@H](C)[C@H](NC(=O)[C@H](CCCCN)NC(=O)[C@H](CCCCN)NC(=O)[C@H](Cc1ccccc1)NC(=O)[C@H](Cc1ccccc1)NC(=O)[C@@H](NC(=O)[C@@H](NC(=O)[C@H](CO)NC(=O)[C@H](CCCCN)NC(=O)[C@@H](NC(=O)[C@@H](NC(=O)[C@H](Cc1c[nH]c2ccccc12)NC(=O)[C@H](CCCCN)NC(=O)[C@H](CCCCN)NC(=O)[C@@H](NC(=O)[C@H](CCC(=O)O)NC(=O)[C@H](CCCCN)NC(=O)[C@H](CC(C)C)NC(=O)[C@@H](NC(=O)[C@H](CCCCN)NC(=O)[C@H](CCCNC(=N)N)NC(=O)[C@H](CC(C)C)NC(=O)[C@H](CC(C)C)NC(=O)[C@@H](N)CCCCN)C(C)C)[C@@H](C)O)C(C)C)[C@@H](C)CC)C(C)C)C(C)C)C(=O)N[C@@H](CCCNC(=N)N)C(=O)N[C@@H](CCCCN)C(=O)O [Hesperelin-1] (H-KLLRKVLKETKKWVIKSVVFFKKIRK-OH) |  |  | 8 | 2000 (≈ 6490 mg/mL)
4 | CC[C@H](C)[C@H](NC(=O)[C@H](CO)NC(=O)[C@H](CCCNC(=N)N)NC(=O)[C@H](C)NC(=O)[C@H](Cc1c[nH]cn1)NC(=O)[C@H](CC(C)C)NC(=O)[C@H](CS)NC(=O)[C@H](C)NC(=O)[C@@H](N)CCCNC(=N)N)C(=O)N[C@@H](C)C(=O)N[C@@H](CCCNC(=N)N)C(=O)N[C@@H](CC(C)C)C(=O)N[C@@H](Cc1c[nH]cn1)C(=O)N[C@@H](CCCCN)C(=O)N[C@@H](CCCNC(=N)N)C(=O)N[C@@H](Cc1c[nH]c2ccccc12)C(=O)N[C@@H](CCCNC(=N)N)C(=O)N1CCC[C@H]1C(=O)N[C@H](C(=O)N[C@@H](Cc1c[nH]cn1)C(=O)N[C@@H](CCC(N)=O)C(=O)NCC(=O)N[C@@H](CC(C)C)C(=O)NCC(=O)N[C@@H](CC(C)C)C(=O)N[C@@H](CCCCN)C(=O)O)C(C)C [Mammuthusin-2] (H-RACLHARSIARLHKRWRPVHQGLGLK-OH) |  | 3-4 orders of magnitude | 32 | 32000 (≈ 97900 mg/mL)
5 | CC(C)C[C@H](NC(=O)CNC(=O)[C@H](CCCNC(=N)N)NC(=O)[C@H](CCCCN)NC(=O)[C@H](CCCNC(=N)N)NC(=O)[C@@H](N)CCCCN)C(=O)N[C@@H](CCCCN)C(=O)N[C@@H](CC(C)C)C(=O)N[C@@H](C)C(=O)N[C@H](C(=O)N[C@@H](C)C(=O)N[C@@H](CC(C)C)C(=O)N[C@@H](CO)C(=O)N[C@@H](CC(C)C)C(=O)N[C@@H](CC(N)=O)C(=O)N[C@@H](CC(N)=O)C(=O)N[C@@H](CCCCN)C(=O)N[C@@H](Cc1ccccc1)C(=O)O)[C@@H](C)O [Mylodonin-2] (H-KRKRGLKLATALSLNNKF-OH) |  |  | 64 | 32000 (≈ 65900 mg/mL)
6 | CC[C@H](C)[C@H](NC(=O)[C@@H](N)CC(C)C)C(=O)N[C@H](C(=O)N[C@@H](CS)C(=O)N[C@@H](Cc1ccccc1)C(=O)N[C@@H](Cc1ccccc1)C(=O)N[C@@H](CCCNC(=N)N)C(=O)N[C@@H](CCC(N)=O)C(=O)N[C@@H](CC(C)C)C(=O)N[C@@H](CCCCN)C(=O)N[C@@H](Cc1ccccc1)C(=O)N[C@@H](Cc1c[nH]cn1)C(=O)N[C@@H](Cc1ccccc1)C(=O)O)C(C)C [Megalocerin-1] (H-LIVCFFRQLKFHF-OH) |  |  | 8 | 8000 (≈ 13600 mg/mL)
